One assay concerns GP2d cells (KRAS G12D). Description: Cell-based pERK HTRF assay in GP2d cell (Biological Example 2). The following applies: GP2d, GP2d (KRAS G12D) cells. In outline:
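Phospho-ERK in lysed cells was detected by HTRF using Eu cryptate and d2 antibodies, read between 4 and 24 h at room temperature. Prior to lysis, KRAS G12D GP2d cells, seeded the day before in DMEM with 10% FBS, were exposed to compounds for 60 min. Compounds were tested as 9-point half-log curves from 1 μM or 100 nM top, with 0.25% DMSO.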

Assay [1] deals with T1, Avi-KRAS G12D (2-169) GTP/RAF1 RBD-3xFLAG (51-131) (Homo sapiens, UniProt P01116, G12D).
T1 construct: Avi-KRAS G12D (2-169)
T1 sequence (P01116 2-169 isoform P01116-2 G12D): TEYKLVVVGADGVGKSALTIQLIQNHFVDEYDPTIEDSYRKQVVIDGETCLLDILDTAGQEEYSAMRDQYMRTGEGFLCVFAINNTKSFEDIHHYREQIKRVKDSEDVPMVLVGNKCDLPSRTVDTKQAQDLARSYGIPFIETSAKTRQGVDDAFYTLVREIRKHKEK
Description: Raf1-KRAS G12D-GTP disruption HTRF assay (Biological Example 3). The assay is classed as binding. Particulars: KRAS G12D, GTP-loaded. On the procedure: (§1) Biological Example 3: Disrupting RAS-Effector Binding HTRF Assay
(§2) A protein:protein interaction (PPI) Homogeneous Time Resolved Fluorescence (HTRF) assay was used to determine the effectiveness of compounds in disrupting KRAS protein and effector (RAF1) binding.
(§3) The HTRF assay used the following reagents and proteins: (i) 50 nM Avi-KRAS G12D (2-169) GTP/RAF1 RBD-3xFLAG (51-131): (ii) 50 nM Avi-KRAS G12C (2-169) GTP/RAF1 RBD-3xFLAG (51-131): (iii) 50 nM Avi-KRAS G12V (2-169) GTP/RAF1 RBD-3xFLAG (51-131); (iv) 50 nM Avi-KRAS WT (2-169) GTP/RAF1 RBD-3xFLAG (51-131); and (v) 75 nM 3xFLAG-RAF1 RBD (51-131)-Avi. The assay buffer included: 50 mM Tris pH 7.5 (Invitrogen, 15567-027), 100 mM NaCl (Sigma, S5150-IL), 5 mM MgCl2 (Sigma, 63069), 0.1% BSA (Sigma, A7030), 0.01% Tween 20 (Sigma, P7949), 10% DMSO (Cell Signaling, 12611). The bead buffer included: 50 mM Tris pH 7.5 (Invitrogen, 15567-027), 0.01% Tween 20 (Sigma, P7949). An assay volume of 20 μL was used in a 384 well plate-low volume format. Compound titration: 30-0.005 μM, 3x dilution series.
(§4) The HTRF assay employed the following protocol:
(§5) Compounds were dispensed in assay plate (384-well, Grenier Bio-One #784075) using Echo (model 555) with dose response settings: 200 nL final volume, titration from 30 μM as a 10-point dilution series. Proteins and HTRF reagents were mixed and dispensed onto plates, 20 μL per well, and then incubated for 1 h at room temperature, with 700 rpm shaking.
(§6) Plates were analyzed on an Envision plate reader using the following setting: Excitation 320 nm, Bandwidth 75 nm; Emission 615 nm, Bandwidth 85 nm; Gain 100%; Flashes 100; Lag 60 μs. Data was reported as percentage of activity, with DMSO as 100%. Data was plotted and analyzed using Prism 8.
(§7) The biochemical Raf1-KRAS G12D/G12V/G12C/WT-GTP disruption assay IC50 of selected compounds described herein are shown in Table 12.

Assay [2] addresses T2, Avi-KRAS G12C (2-169) GTP/RAF1 RBD-3xFLAG (51-131) (Homo sapiens, UniProt P01116, G12C).
T2 construct: Avi-KRAS G12C (2-169)
Description: Raf1-KRAS G12C-GTP disruption HTRF assay (Biological Example 3). The following applies: KRAS G12C, GTP-loaded. The assay is classed as binding. On the procedure:
as §1, §2, §3, §4, §5, §6, §7

Assay [3] deals with T3, Avi-KRAS G12V (2-169) GTP/RAF1 RBD-3xFLAG (51-131) (Homo sapiens, UniProt P01116, G12V).
T3 construct: Avi-KRAS G12V (2-169)
T3 sequence (P01116 2-169 isoform P01116-2 G12V): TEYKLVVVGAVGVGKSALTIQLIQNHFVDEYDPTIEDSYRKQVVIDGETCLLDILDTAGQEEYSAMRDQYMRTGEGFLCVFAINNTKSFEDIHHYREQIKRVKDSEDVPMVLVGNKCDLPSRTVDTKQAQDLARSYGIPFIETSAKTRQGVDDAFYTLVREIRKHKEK
In words: Raf1-KRAS G12V-GTP disruption HTRF assay (Biological Example 3). The following applies: KRAS G12V, GTP-loaded. The assay is classed as binding. On the procedure:
as §1, §2, §3, §4, §5, §6, §7

For assay [4], the target named is T4, Avi-KRAS WT (2-169) GTP/RAF1 RBD-3xFLAG (51-131) (Homo sapiens, UniProt P01116).
T4 construct: Avi-KRAS WT (2-169)
T4 sequence (P01116 2-169 isoform P01116-2): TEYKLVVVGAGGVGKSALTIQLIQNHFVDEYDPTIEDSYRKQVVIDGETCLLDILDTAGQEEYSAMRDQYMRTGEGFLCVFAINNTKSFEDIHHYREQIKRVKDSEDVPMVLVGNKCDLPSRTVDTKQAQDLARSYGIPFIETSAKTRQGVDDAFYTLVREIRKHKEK
In words: Raf1-KRAS WT-GTP disruption HTRF assay (Biological Example 3). Particulars: KRAS WT, GTP-loaded. The format is binding. On the procedure:
as §1, §2, §3, §4, §5, §6, §7

A further assay concerns SW620 cells (KRAS G12V). In words: Cell-based pERK HTRF assay in SW620 cell (Biological Example 4). Particulars: Homo sapiens, SW-620, SW620 (KRAS G12V) cells. In short, it runs like this: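 In SW620 cells grown in RPMI with 10% FBS, a 4 h compound treatment (0.25% DMSO, 9-point curve from 1 μM) preceded lysis. Phospho-ERK levels were then read by time-resolved FRET at 615 nm emission.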

Each structure is given as a SMILES string. pIC50: −log10 of the molar value.

T2 sequence (P01116 2-169 isoform P01116-2 G12C): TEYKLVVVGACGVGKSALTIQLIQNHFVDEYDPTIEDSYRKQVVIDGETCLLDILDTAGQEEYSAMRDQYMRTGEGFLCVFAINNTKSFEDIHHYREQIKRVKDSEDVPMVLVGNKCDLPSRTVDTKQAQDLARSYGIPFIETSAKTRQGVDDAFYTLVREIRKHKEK

Consider `CCN(c1nc(OC[C@@]23CCCN2C[C@H](F)C3)nc2c(F)c(-c3ccc(F)c4sc(N)c(C#N)c34)c(C(F)(F)F)cc12)[C@H]1CC[C@H](C(=O)N(C)C)C1` (atropisomer, axis not shown) [Compound 660], for which the pIC50 is > 7.00 with GP2d cells (KRAS G12D); 6.00 to 7.00 in assay [1]; 5.00 to 6.00 in assay [2]; 5.00 to 6.00 in assay [3]; 6.00 to 7.00 in assay [4]; > 7.00 in the assay on SW620 cells (KRAS G12V).

Consider `CCN(c1nc(OC[C@@]23CCCN2C[C@H](F)C3)nc2c(F)c(-c3ccc(F)c4sc(N)c(C#N)c34)c(C(F)(F)F)cc12)[C@H]1CC[C@@H](C(=O)N(C)C)C1` (atropisomer, axis not shown) [Compound 661], for which the pIC50 was > 7.00 with GP2d cells (KRAS G12D); 6.00 to 7.00 in assay [1]; 5.00 to 6.00 in assay [2]; 5.00 to 6.00 in assay [3]; 6.00 to 7.00 in assay [4]; > 7.00 in the assay with SW620 cells (KRAS G12V).

In the case of `CCN(c1nc(OC[C@@]23CCCN2C[C@H](F)C3)nc2c(F)c(-c3ccc(F)c4sc(N)c(C#N)c34)c(C(F)(F)F)cc12)[C@H]1C[C@@H]2CCCC(=O)N2C1` (atropisomer, axis not shown) [Compound 663], the negative logarithm of the IC50 (pIC50) with GP2d cells (KRAS G12D) is > 7.00; in assay [1], 6.00 to 7.00; in assay [2], 5.00 to 6.00; in assay [3], 5.00 to 6.00; in assay [4], 5.00 to 6.00; in the assay with SW620 cells (KRAS G12V), > 7.00.

As for `CCN(c1nc(OC[C@@]23CCCN2C[C@H](F)C3)nc2c(F)c(-c3ccc(F)c4sc(N)c(C#N)c34)c(C(F)(F)F)cc12)[C@H]1C[C@@H]2CCN(C)C(=O)N2C1` (atropisomer, axis not shown) [Compound 667], the negative logarithm of the IC50 (pIC50) in the assay with GP2d cells (KRAS G12D) was > 7.00; in assay [1], 6.00 to 7.00; in assay [2], 6.00 to 7.00; in assay [3], 6.00 to 7.00; in assay [4], 6.00 to 7.00; in the assay on SW620 cells (KRAS G12V), > 7.00.

Consider `CCN(c1nc(OC[C@@]23CCCN2C[C@H](F)C3)nc2c(F)c(-c3ccc(F)c4sc(N)c(C#N)c34)c(C(F)(F)F)cc12)[C@H]1CCN(C(=O)O[C@@H]2CCCOC2)C1` (atropisomer, axis not shown) [Compound 796], for which the pIC50 was > 7.00 with GP2d cells (KRAS G12D); 6.00 to 7.00 in assay [1]; 6.00 to 7.00 in assay [2]; 6.00 to 7.00 in assay [3]; 6.00 to 7.00 in assay [4]; > 7.00 with SW620 cells (KRAS G12V).

For `CCN(c1nc(OC[C@@]23CCCN2C[C@H](F)C3)nc2c(F)c(-c3ccc(F)c4sc(N)c(C#N)c34)c(C(F)(F)F)cc12)[C@H]1CCN(C(=O)O[C@H]2CO[C@H]3OCC[C@H]32)C1` (atropisomer, axis not shown) [Compound 816], the pIC50 in the assay on GP2d cells (KRAS G12D) was > 7.00; in assay [1], 6.00 to 7.00; in assay [2], ≥ 7.00; in assay [3], 6.00 to 7.00; in assay [4] it was 6.00 to 7.00; in the assay on SW620 cells (KRAS G12V), > 7.00.

Turning to `CCN(c1nc(OC[C@@]23CCCN2C[C@H](F)C3)nc2c(F)c(-c3ccc(F)c4sc(N)c(C#N)c34)c(C(F)(F)F)cc12)[C@H]1CCN(C(=O)N2CC(F)C2)[C@H]1C` (atropisomer, axis not shown) [Compound 818], the pIC50 is > 7.00 in the assay with GP2d cells (KRAS G12D); 5.00 to 6.00 in assay [1]; 5.00 to 6.00 in assay [2]; 5.00 to 6.00 in assay [3]; 5.00 to 6.00 in assay [4]; > 7.00 with SW620 cells (KRAS G12V).

Turning to `CCN(c1nc(OC[C@@]23CCCN2C[C@H](F)C3)nc2c(F)c(-c3ccc(F)c4sc(N)c(C#N)c34)c(C(F)(F)F)cc12)[C@H]1CCN(C(=O)O[C@H]2CCCOC2)C1` (atropisomer, axis not shown) [Compound 822], the pIC50 with GP2d cells (KRAS G12D) is > 7.00; in assay [1] it was 6.00 to 7.00; in assay [2] it was 6.00 to 7.00; in assay [3], 6.00 to 7.00; in assay [4], 6.00 to 7.00; with SW620 cells (KRAS G12V), > 7.00.

With `CCN(c1nc(OC[C@@]23CCCN2C[C@H](F)C3)nc2c(F)c(-c3ccc(F)c4sc(N)c(C#N)c34)c(C(F)(F)F)cc12)[C@H]1C[C@H]2[C@@H](C)OC(=O)N2C1` (atropisomer, axis not shown) [Compound 823], the pIC50 with GP2d cells (KRAS G12D) was > 7.00; in assay [1], 6.00 to 7.00; in assay [2] it was 6.00 to 7.00; in assay [3], 6.00 to 7.00; in assay [4], 6.00 to 7.00; in the assay on SW620 cells (KRAS G12V), > 7.00.

`CCN(c1nc(OC[C@@]23CCCN2C[C@H](F)C3)nc2c(F)c(-c3ccc(F)c4sc(N)c(C#N)c34)c(C(F)(F)F)cc12)[C@H]1CCN(C(=O)O[C@@H]2CCOC2)[C@@H]1C` (atropisomer, axis not shown) [Compound 824]: the pIC50 in the assay on GP2d cells (KRAS G12D) was > 7.00; in assay [1], 6.00 to 7.00; in assay [2] it was 6.00 to 7.00; in assay [3], 6.00 to 7.00; in assay [4], 6.00 to 7.00; in the assay with SW620 cells (KRAS G12V), > 7.00.

`CCN(c1nc(OC[C@@]23CCCN2C[C@H](F)C3)nc2c(F)c(-c3ccc(F)c4sc(N)c(C#N)c34)c(C(F)(F)F)cc12)[C@H]1CCN(C(=O)OC2CCOCC2)[C@@H]1C` (atropisomer, axis not shown) [Compound 825]: the negative-log IC50 (pIC50) in the assay on GP2d cells (KRAS G12D) is > 7.00; in assay [1] it was 6.00 to 7.00; in assay [2], 6.00 to 7.00; in assay [3] it was 6.00 to 7.00; in assay [4], 6.00 to 7.00; in the assay with SW620 cells (KRAS G12V), > 7.00.

On to `CO[C@H](C)C(=O)N1CC[C@H](N(c2nc(OC[C@@]34CCCN3C[C@H](F)C4)nc3c(F)c(-c4ccc(F)c5sc(N)c(C#N)c45)c(C(F)(F)F)cc23)C2CC2)C1` (atropisomer, axis not shown) [Compound 826], for which the pIC50 in the assay on GP2d cells (KRAS G12D) was > 7.00; in assay [1], 6.00 to 7.00; in assay [2], 5.00 to 6.00; in assay [3], 5.00 to 6.00; in assay [4] it was 5.00 to 6.00; in the assay on SW620 cells (KRAS G12V), > 7.00.

As for `CCN(c1nc(OC[C@@]23CCCN2C[C@H](F)C3)nc2c(F)c(-c3ccc(F)c4sc(N)c(C#N)c34)c(C(F)(F)F)cc12)[C@@H]1CC[C@@H](C(=O)N(C)C)C1` (atropisomer, axis not shown) [Compound 827], the pIC50 was > 7.00 with GP2d cells (KRAS G12D); 5.00 to 6.00 in assay [1]; 5.00 to 6.00 in assay [2]; 5.00 to 6.00 in assay [3]; 5.00 to 6.00 in assay [4]; > 7.00 in the assay on SW620 cells (KRAS G12V).

With `CN(C)C(=O)N1CC[C@H](N(CCF)c2nc(OC[C@@]34CCCN3C[C@H](F)C4)nc3c(F)c(-c4ccc(F)c5sc(N)c(C#N)c45)c(C(F)(F)F)cc23)C1` (atropisomer, axis not shown) [Compound 828], the pIC50 in the assay with GP2d cells (KRAS G12D) is > 7.00; in assay [1], 6.00 to 7.00; in assay [2], 6.00 to 7.00; in assay [3], 6.00 to 7.00; in assay [4] it was 5.00 to 6.00; with SW620 cells (KRAS G12V), 6.00 to 7.00.

Regarding `CCN(c1nc(OC[C@@]23CCCN2C[C@H](F)C3)nc2c(F)c(-c3ccc(F)c4sc(N)c(C#N)c34)c(C(F)(F)F)cc12)[C@H]1C[C@H](C(=O)N(C)C)C1` (atropisomer, axis not shown) [Compound 950], the negative logarithm of the IC50 (pIC50) in assay [1], in assay [2], in assay [3] and in assay [4] was 6.00 to 7.00 in each case.

These data come from patent US20260042764A1, “COMPOSITIONS AND METHODS FOR INHIBITION OF KRAS” (TheRas, Inc., priority 2022, published 2026).
